Assay results published in US20230227442A1, “HETEROALKYL DIHYDROQUINOLINE SULFONAMIDE COMPOUNDS” (AMGEN INC., priority 2020, published 2023).

Legend:
CYP3A4 = assay: Human CYP 3A4 induction assay (mRNA, cryopreserved human hepatocytes); type: in vitro ADME; conditions: 72 hours, percent of control (POC); for CYP3A4 mRNA Induct Hu 2 uM POC: 2 uM test compound; for CYP3A4 mRNA Induct Hu 10 uM POC: 10 uM test compound
Protocol: Human CYP 3A4 Induction Assay
Cryopreserved human hepatocytes were seeded in 96-well collagen coated plates at 70,000 cells per well in hepatocyte plating media (HPM, final concentrations: lx Dulbecco's Modified Eagle's Medium, 0.1 μM dexamethasone, 10% fetal bovine serum, lx ITS, 1×PSG) followed by incubation at 37° C. under 5% CO2 and 90% relative humidity for 2 days to allow hepatocytes to form a confluent layer. On Day 3, hepatocytes were treated with either test compound or rifampin (20 μM, positive control for CYP3A induction) prepared in hepatocyte incubation media ((HIM, final concentrations: 1× William's Medium E, 0.1 μM dexamethasone, 1×ITS, 1×PSG). Treatment was performed for 72 hours with either 2 concentrations (2 μM or 10 μM) or a range of concentrations (0.001 μM to 100 μM) of the test compound to obtain full dose-response curve. Fresh media containing the relevant concentrations of the test compound was replaced every day until the samples were processed. After 72 hours of incubation, samples were processed for mRNA analysis using bDNA technology using manufacturer's instructions (Affymetrix, Fremont, Calif.). Cell viability was tested at the end of the experiment using MTT assay kit (Roche Diagnostics, Basel, Switzerland). Data was analyzed and presented as percent of control (POC) and Emax and EC50 obtained when appropriate according to guidance from Center for Drug Evaluation and Research (CDER), 2006, Guidance for Industry, Drug Interaction Studies—Study Design, Data Analysis, and Implications for Dosing and Labeling.
Cryopreserved human hepatocytes were seeded in 96-well collagen coated plates at 70,000 cells per well in hepatocyte plating media (HPM, final concentrations: lx Dulbecco's Modified Eagle's Medium, 0.1 μM dexamethasone, 10% fetal bovine serum, lx ITS, 1×PSG) followed by incubation at 37° C. under 5% CO2 and 90% relative humidity for 2 days to allow hepatocytes to form a confluent layer. On Day 3, hepatocytes were treated with either test compound or rifampin (20 μM, positive control for CYP3A induction) prepared in hepatocyte incubation media ((HIM, final concentrations: 1× William's Medium E, 0.1 μM dexamethasone, 1×ITS, 1×PSG). Treatment was performed for 72 hours with either 2 concentrations (2 μM or 10 μM) or a range of concentrations (0.001 μM to 100 μM) of the test compound to obtain full dose-response curve. Fresh media containing the relevant concentrations of the test compound was replaced every day until the samples were processed. After 72 hours of incubation, samples were processed for mRNA analysis using bDNA technology using manufacturer's instructions (Affymetrix, Fremont, Calif.). Cell viability was tested at the end of the experiment using MTT assay kit (Roche Diagnostics, Basel, Switzerland). Data was analyzed and presented as percent of control (POC) and Emax and EC50 obtained when appropriate, as described in Halladay, J. et al, 2012, An “all-inclusive” 96-well cytochrome P450 induction method: Measuring enzyme activity, mRNA levels, protein levels, and cytotoxicity from one well using cryopreserved human hepatocytes, Pharmacological and Toxicological Methods, 66:270-275.

Human Nav1.7 = molecular target: T1, Human Nav1.7 (Homo sapiens, UniProt Q15858); assay: Ionworks Barracuda (IWB) automated patch clamp assay; type: cell-based; conditions: population patch clamp, HEK cells, 4 min compound incubation at -20 mV; read-out: hNaV1.7 IWB-U IC50
T1 construct: expressed in transfected cells; host or cells: Spiking HEK cells (without Kir2.1 transfection)
Protocol: Ionworks Barracuda Automated Patch Clamp Assay (Same Protocol for Both Human and Mouse)
Human Nav1.7 currents were recorded in population patch-clamp mode with the IWB automated electrophysiology system (Molecular Devices, LLC, Sunnyvale, Calif.). Spiking HEK cells (without Kir2.1 transfection) were cultured and prepared for recordings as previously described for IonWorks Quattro testing^1. The external solution consisted of the following (in mM): NaCl 140, KCl 5, CaCl2 2, MgCl2 1, HEPES 10, and glucose 11, pH 7.4, with N-methyl-D-glucamine at 320 mOsmol. The internal solution consisted of the following (in mM): KCl 70, KF 70, MgCl2 0.25, HEDTA 5, and HEPES 10, pH 7.25, with Nmethyl-D-glucamine, 300 mOsmol. From a holding potential of −110 mV, currents were elicited by a train of 26 depolarizations of 150 ms duration to −20 mV at a frequency of 5 Hz. Cells were then clamped to −20 mV for a period of 4 minutes in the presence of a single concentration of test compound. Following this compound incubation period, cells were clamped to −110 mV for three seconds to recover unbound channels and put through the same 26 pulse voltage protocol as above. Peak inward current during the 26th pulse to −20 mV in the presence of compound was divided by the peak inward current evoked by the 26th pulse to −20 mV in the absence of compound to determine percent inhibition. Concentration-response curves of percent inhibition as a function of concentration were generated to calculate IC50 values as described in Kornecook, T. J.; Yin, R.; Altmann, S.; et al. Pharmacologic Characterization of AMG8379, a Potent and Selective Small Molecule Sulfonamide Antagonist of the Voltage-Gated Sodium Channel NaV1. 7. J. Pharmacol. Exp. Ther. 2017, 362, 146-160.

T1 sequence (Q15858 whole entry): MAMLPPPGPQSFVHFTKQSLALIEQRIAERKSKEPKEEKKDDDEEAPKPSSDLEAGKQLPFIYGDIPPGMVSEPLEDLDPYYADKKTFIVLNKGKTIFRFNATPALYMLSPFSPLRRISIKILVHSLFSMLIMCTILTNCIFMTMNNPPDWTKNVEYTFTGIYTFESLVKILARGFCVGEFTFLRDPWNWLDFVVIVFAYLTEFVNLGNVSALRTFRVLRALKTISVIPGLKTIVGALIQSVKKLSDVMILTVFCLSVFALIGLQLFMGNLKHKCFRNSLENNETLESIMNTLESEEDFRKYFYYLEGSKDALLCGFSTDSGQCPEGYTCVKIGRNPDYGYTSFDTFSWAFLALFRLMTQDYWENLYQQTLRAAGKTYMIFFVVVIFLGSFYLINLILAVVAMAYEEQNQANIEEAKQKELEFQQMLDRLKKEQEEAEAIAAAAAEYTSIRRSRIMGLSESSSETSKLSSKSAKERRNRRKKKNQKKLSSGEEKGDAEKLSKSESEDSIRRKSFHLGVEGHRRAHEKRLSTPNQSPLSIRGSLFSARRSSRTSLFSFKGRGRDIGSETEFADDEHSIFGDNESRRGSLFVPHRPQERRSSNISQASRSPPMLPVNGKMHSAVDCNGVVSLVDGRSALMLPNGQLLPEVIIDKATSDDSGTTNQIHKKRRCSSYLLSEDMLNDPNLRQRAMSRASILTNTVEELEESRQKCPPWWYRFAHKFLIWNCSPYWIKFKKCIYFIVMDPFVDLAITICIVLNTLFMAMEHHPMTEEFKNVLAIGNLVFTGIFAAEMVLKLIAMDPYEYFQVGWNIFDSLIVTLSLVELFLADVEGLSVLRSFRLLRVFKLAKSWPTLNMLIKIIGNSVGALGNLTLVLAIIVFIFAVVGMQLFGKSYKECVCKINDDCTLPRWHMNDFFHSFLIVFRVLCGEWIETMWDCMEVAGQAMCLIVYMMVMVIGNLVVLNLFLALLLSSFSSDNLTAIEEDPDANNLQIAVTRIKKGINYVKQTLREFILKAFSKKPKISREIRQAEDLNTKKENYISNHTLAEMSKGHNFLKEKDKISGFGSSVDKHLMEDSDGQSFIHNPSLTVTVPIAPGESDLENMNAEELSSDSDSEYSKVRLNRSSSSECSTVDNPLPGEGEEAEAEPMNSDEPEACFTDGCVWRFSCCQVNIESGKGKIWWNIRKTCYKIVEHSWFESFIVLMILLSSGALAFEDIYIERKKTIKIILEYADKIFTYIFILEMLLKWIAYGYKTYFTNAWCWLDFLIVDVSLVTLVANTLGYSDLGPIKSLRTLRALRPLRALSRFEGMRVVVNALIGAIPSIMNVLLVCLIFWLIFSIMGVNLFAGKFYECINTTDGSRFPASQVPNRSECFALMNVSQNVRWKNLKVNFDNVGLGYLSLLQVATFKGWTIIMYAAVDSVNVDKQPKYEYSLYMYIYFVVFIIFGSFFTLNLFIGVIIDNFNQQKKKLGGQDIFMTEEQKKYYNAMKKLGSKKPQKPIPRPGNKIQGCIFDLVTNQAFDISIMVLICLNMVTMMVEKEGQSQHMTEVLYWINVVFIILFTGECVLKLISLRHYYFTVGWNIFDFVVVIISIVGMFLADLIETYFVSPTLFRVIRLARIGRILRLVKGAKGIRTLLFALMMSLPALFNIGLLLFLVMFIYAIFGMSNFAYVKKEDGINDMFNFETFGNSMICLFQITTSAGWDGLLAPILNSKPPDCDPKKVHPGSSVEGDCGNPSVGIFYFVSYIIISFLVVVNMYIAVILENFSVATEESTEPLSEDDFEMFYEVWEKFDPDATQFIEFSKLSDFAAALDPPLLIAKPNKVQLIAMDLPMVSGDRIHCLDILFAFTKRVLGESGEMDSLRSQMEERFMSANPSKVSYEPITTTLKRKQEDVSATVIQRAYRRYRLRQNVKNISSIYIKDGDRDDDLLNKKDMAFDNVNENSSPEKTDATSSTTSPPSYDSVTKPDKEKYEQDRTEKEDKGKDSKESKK

CYP3A4 mRNA Induct Hu 2 uM POC (CYP3A4) [%]	CYP3A4 mRNA Induct Hu 10 uM POC (CYP3A4) [%]	IC50 (Human Nav1.7) [nM]	SMILES
18.3	30.1	11	COc1cc(COC(F)(F)F)c(F)cc1-n1c(=O)ccc2cc(S(=O)(=O)Nc3ccon3)c(F)cc21 (atropisomer, axis not shown; (P)) [Example 6, (P)-7-fluoro-1-(5-fluoro-2-methoxy-4-((trifluoromethoxy)methyl)phenyl)-N-(isoxazol-3-yl)-2-oxo-1,2-dihydroquinoline-6-sulfonamide]
3.4	7.5	11	COc1cc(SCC(F)(F)F)c(F)cc1-n1c(=O)ccc2cc(S(=O)(=O)Nc3ccon3)ccc21 (atropisomer, axis not shown; (P)) [Example 5, (P)-1-(5-fluoro-2-methoxy-4-((2,2,2-trifluoroethyl)thio)phenyl)-N-(isoxazol-3-yl)-2-oxo-1,2-dihydroquinoline-6-sulfonamide]
1.7	–	7	COc1cc(COC(F)(F)F)c(Cl)cc1-n1c(=O)ccc2cc(S(=O)(=O)Nc3ccon3)ccc21 (atropisomer, axis not shown; (P)) [Example 1, (P)-1-(5-chloro-2-methoxy-4-((trifluoromethoxy)methyl)phenyl)-N-(isoxazol-3-yl)-2-oxo-1,2-dihydroquinoline-6-sulfonamide]
7.3	48.1	10	COc1cc(SC(F)(F)F)c(F)cc1-n1c(=O)cc(F)c2cc(S(=O)(=O)Nc3ccon3)ccc21 [Example 11, P-4-fluoro-1-(5-fluoro-2-methoxy-4-((trifluoromethyl)thio)phenyl)-N-(isoxazol-3-yl)-2-oxo-1,2-dihydroquinoline-6-sulfonamide]
0.4	1.8	32	COc1cc(O[C@H](C)C(F)(F)F)c(F)cc1-n1c(=O)ccc2cc(S(=O)(=O)Nc3ccon3)ccc21 (atropisomer, axis not shown; (P)) [Example 21, (P)-(R)-1-(5-fluoro-2-methoxy-4-((1,1,1-trifluoropropan-2-yl)oxy)phenyl)-N-(isoxazol-3-yl)-2-oxo-1,2-dihydroquinoline-6-sulfonamide]
10.8	35.7	21	COc1cc(OCC(F)(F)F)c(F)cc1-n1c(=O)ccc2cc(S(=O)(=O)Nc3ccon3)ccc21 (atropisomer, axis not shown; (P)) [Example 10, (P)-1-(5-fluoro-2-methoxy-4-(2,2,2-trifluoroethoxy)phenyl)-N-(isoxazol-3-yl)-2-oxo-1,2-dihydroquinoline-6-sulfonamide]
16.3	39.8	27	COc1cc(O[C@@H](C)C(F)(F)F)c(F)cc1-n1c(=O)ccc2cc(S(=O)(=O)Nc3ccon3)c(F)cc21 (atropisomer, axis not shown; (P)) [Example 17, (P)-(S)-7-fluoro-1-(5-fluoro-2-methoxy-4-((1,1,1-trifluoropropan-2-yl)oxy)phenyl)-N-(isoxazol-3-yl)-2-oxo-1,2-dihydroquinoline-6-sulfonamide]
10.8	29.6	30	COc1cc(OCCC(F)(F)F)c(F)cc1-n1c(=O)ccc2cc(S(=O)(=O)Nc3ccon3)ccc21 (atropisomer, axis not shown; (P)) [Example 20, (P)-1-(5-fluoro-2-methoxy-4-(3,3,3-trifluoropropoxy)phenyl)-N-(isoxazol-3-yl)-2-oxo-1,2-dihydroquinoline-6-sulfonamide]
10.1	35.4	9	COc1cc(OC(F)(F)F)c(Cl)cc1-n1c(=O)ccc2cc(S(=O)(=O)Nc3ccon3)ccc21 (atropisomer, axis not shown; (P)) [Example 3, (P)-1-(5-chloro-2-methoxy-4-(trifluoromethoxy)phenyl)-N-(isoxazol-3-yl)-2-oxo-1,2-dihydroquinoline-6-sulfonamide]
20.2	61.2	14	COc1cc(SC(F)(F)F)c(C)cc1-n1c(=O)ccc2cc(S(=O)(=O)Nc3ccon3)ccc21 [Example 12, P-N-(isoxazol-3-yl)-1-(2-methoxy-5-methyl-4-((trifluoromethyl)thio)phenyl)-2-oxo-1,2-dihydroquinoline-6-sulfonamide]
–	–	8	COc1cc(SC(F)(F)F)c(Cl)cc1-n1c(=O)ccc2cc(S(=O)(=O)Nc3ccon3)ccc21 (atropisomer, axis not shown; (P)) [Example 2, (P)-1-(5-chloro-2-methoxy-4-((trifluoromethyl)thio)phenyl)-N-(isoxazol-3-yl)-2-oxo-1,2-dihydroquinoline-6-sulfonamide]
0.2	0.2	11	COc1cc(COC(F)(F)F)c(F)cc1-n1c(=O)ccc2cc(S(=O)(=O)Nc3ccon3)ccc21 (atropisomer, axis not shown; (P)) [Example 4, (P)-1-(5-fluoro-2-methoxy-4-((trifluoromethoxy)methyl)phenyl)-N-(isoxazol-3-yl)-2-oxo-1,2-dihydroquinoline-6-sulfonamide]
7.0	35.3	21	COc1cc(O[C@H](C)C(F)(F)F)c(F)cc1-n1c(=O)ccc2cc(S(=O)(=O)Nc3ncccn3)ccc21 [Example 13, P-(R)-1-(5-fluoro-2-methoxy-4-((1,1,1-trifluoropropan-2-yl)oxy)phenyl)-2-oxo-N-(pyrimidin-2-yl)-1,2-dihydroquinoline-6-sulfonamide]
7.7	20.2	23	COc1cc(OCC(F)(F)F)c(Cl)cc1-n1c(=O)ccc2cc(S(=O)(=O)Nc3ccon3)ccc21 (atropisomer, axis not shown; (P)) [Example 15, (P)-1-(5-chloro-2-methoxy-4-(2,2,2-trifluoroethoxy)phenyl)-N-(isoxazol-3-yl)-2-oxo-1,2-dihydroquinoline-6-sulfonamide]
3.9	7.2	24	COc1cc(O[C@H](C)C(F)(F)F)c(F)cc1-n1c(=O)ccc2cc(S(=O)(=O)Nc3ccon3)c(F)cc21 (atropisomer, axis not shown; (P)) [Example 16, (P)-(R)-7-fluoro-1-(5-fluoro-2-methoxy-4-((1,1,1-trifluoropropan-2-yl)oxy)phenyl)-N-(isoxazol-3-yl)-2-oxo-1,2-dihydroquinoline-6-sulfonamide]
